Data taken from patent US12398101B2, “Herbicidal 2-azaspiro[3-5]nonane compounds” (SYNGENTA CROP PROTECTION AG, priority 2018, dated 2025).

What was measured:
Format in all cases: in vivo
Conditions in all cases: 250 g/h, evaluated after 13 days
Avena fatua (AVEFA) [1] = assay: Glasshouse herbicide test, post-emergence application
Description: (§1) Seeds of a variety of test species are sown in standard soil in pots (Lolium perenne (LOLPE), Setaria faberi (SETFA), Echinochloa crus-galli (ECHCG), Avena fatua (AVEFA)). After cultivation for one day (pre-emergence) or after 8 days cultivation (post-emergence) under controlled conditions in a glasshouse (at 24/16° C., day/night; 14 hours light; 65% humidity), the plants are sprayed with an aqueous spray solution derived from the formulation of the technical active ingredient in acetone/water (50:50) solution containing 0.5% Tween 20 (polyoxyethelyene sorbitan monolaurate, CAS RN 9005-64-5). Compounds are applied at 250 g/h. The test plants are then grown in a glasshouse under controlled conditions in a glasshouse (at 24/16° C., day/night; 14 hours light; 65% humidity) and watered twice daily. After 13 days for pre and post-emergence, the test is evaluated for the percentage damage caused to the plant. The biological activities are shown in the following table on a five point scale (5=80-100%; 4=60-79%; 3=40-59%; 2=20-39%; 1=0-19%).

[2] = tested on: Echinochloa crus-galli (ECHCG); assay: as above
Description: as §1

Lolium perenne (LOLPE) [3] = assay: as above
Description: as §1

Setaria faberi (SETFA) [4] = assay: as above
Description: as §1

Avena fatua (AVEFA) [5] = assay: Glasshouse herbicide test, pre-emergence application
Description: as §1

[6] = tested on: Echinochloa crus-galli (ECHCG); assay: as above
Description: as §1

Lolium perenne (LOLPE) [7] = assay: as above
Description: as §1

Setaria faberi (SETFA) [8] = assay: as above
Description: as §1

Row | SMILES | percentage damage caused to the plant, five point scale, AVEFA (Avena fatua (AVEFA) [1]) | percentage damage caused to the plant, five point scale, ECHCG [2] | percentage damage caused to the plant, five point scale, LOLPE (Lolium perenne (LOLPE) [3]) | percentage damage caused to the plant, five point scale, SETFA (Setaria faberi (SETFA) [4]) | percentage damage caused to the plant, five point scale, AVEFA (Avena fatua (AVEFA) [5]) | percentage damage caused to the plant, five point scale, ECHCG [6] | percentage damage caused to the plant, five point scale, LOLPE (Lolium perenne (LOLPE) [7]) | percentage damage caused to the plant, five point scale, SETFA (Setaria faberi (SETFA) [8])
1 | CC#Cc1cc(C)c(C2C(=O)CC3(CC2=O)CN(C(=O)COC)C3)c(OC)c1 [Compound 1.017] | 5 (5=80-100%) | 4 (4=60-79%) | 5 (5=80-100%) | 5 (5=80-100%) | 5 (5=80-100%) | 5 (5=80-100%) | 5 (5=80-100%) | 5 (5=80-100%)
2 | CC#Cc1cc(Cl)c(C2C(=O)CC3(CC2=O)CN(C(=O)C(F)F)C3)c(OC)c1 [Compound 1.193] | 5 (5=80-100%) | 5 (5=80-100%) | 5 (5=80-100%) | 5 (5=80-100%) | 5 (5=80-100%) | 5 (5=80-100%) | 5 (5=80-100%) | 5 (5=80-100%)
3 | CC#Cc1cc(C)c(C2C(=O)CC3(CC2=O)CN(C(=O)C(C)(C)C)C3)c(C)c1 [Compound 1.010] | 5 (5=80-100%) | 5 (5=80-100%) | 5 (5=80-100%) | 5 (5=80-100%) | 5 (5=80-100%) | 5 (5=80-100%) | 5 (5=80-100%) | 5 (5=80-100%)
4 | CC#Cc1cc(C)c(C2C(=O)CC3(CC2=O)CN(C(=O)C(F)F)C3)c(C)c1 [Compound 1.009] | 5 (5=80-100%) | 5 (5=80-100%) | 5 (5=80-100%) | 5 (5=80-100%) | 5 (5=80-100%) | 5 (5=80-100%) | 5 (5=80-100%) | 5 (5=80-100%)
5 | CC#Cc1cc(C)c(C2C(=O)CC3(CC2=O)CN(C(=O)C(F)F)C3)c(OC)c1 [Compound 1.024] | 5 (5=80-100%) | 5 (5=80-100%) | 5 (5=80-100%) | 5 (5=80-100%) | 5 (5=80-100%) | 5 (5=80-100%) | 5 (5=80-100%) | 5 (5=80-100%)
6 | CC#Cc1cc(C)c(C2C(=O)CC3(CC2=O)CN(C(=O)NC(C)(C)C)C3)c(OC)c1 [Compound 1.018] | 5 (5=80-100%) | 5 (5=80-100%) | 5 (5=80-100%) | 5 (5=80-100%) | 5 (5=80-100%) | 5 (5=80-100%) | 5 (5=80-100%) | 5 (5=80-100%)
7 | CC#Cc1cc(C)c(C2C(=O)CC3(CC2=O)CN(C(=O)COC)C3)c(C)c1 [Compound 1.005] | 5 (5=80-100%) | 5 (5=80-100%) | 5 (5=80-100%) | 5 (5=80-100%) | 5 (5=80-100%) | 5 (5=80-100%) | 5 (5=80-100%) | 5 (5=80-100%)
8 | CC#Cc1cc(C)c(C2C(=O)CC3(CC2=O)CN(C(C)=O)C3)c(OC)c1 [Compound 1.013] | 5 (5=80-100%) | 5 (5=80-100%) | 5 (5=80-100%) | 5 (5=80-100%) | 5 (5=80-100%) | 5 (5=80-100%) | 5 (5=80-100%) | 5 (5=80-100%)
9 | CC#Cc1cc(C)c(C2C(=O)CC3(CC2=O)CN(C(=O)c2ccccc2)C3)c(OC)c1 [Compound 1.015] | 5 (5=80-100%) | 5 (5=80-100%) | 5 (5=80-100%) | 5 (5=80-100%) | 5 (5=80-100%) | 5 (5=80-100%) | 5 (5=80-100%) | 5 (5=80-100%)
10 | CC#Cc1cc(C)c(C2C(=O)CC3(CC2=O)CN(C(=O)C(C)(C)C)C3)c(OC)c1 [Compound 1.021] | 5 (5=80-100%) | 5 (5=80-100%) | 5 (5=80-100%) | 5 (5=80-100%) | 5 (5=80-100%) | 5 (5=80-100%) | 5 (5=80-100%) | 5 (5=80-100%)
11 | CC#Cc1cc(C)c(C2C(=O)CC3(CC2=O)CN(S(=O)(=O)CC)C3)c(C)c1 [Compound 1.002] | 5 (5=80-100%) | 5 (5=80-100%) | 5 (5=80-100%) | 5 (5=80-100%) | 5 (5=80-100%) | 5 (5=80-100%) | 5 (5=80-100%) | 5 (5=80-100%)
12 | CC#Cc1cc(C)c(C2C(=O)CC3(CC2=O)CN(C(=O)CC#N)C3)c(C)c1 [Compound 1.012] | 4 (4=60-79%) | 5 (5=80-100%) | 5 (5=80-100%) | 5 (5=80-100%) | 5 (5=80-100%) | 5 (5=80-100%) | 5 (5=80-100%) | 5 (5=80-100%)
13 | CC#Cc1cc(C)c(C2C(=O)CC3(CC2=O)CN(C(=O)CC#N)C3)c(OC)c1 [Compound 1.023] | 5 (5=80-100%) | 5 (5=80-100%) | 5 (5=80-100%) | 5 (5=80-100%) | 2 (2=20-39%) | 1 (1=0-19%) | 3 (3=40-59%) | 3 (3=40-59%)
